From the OPERA property sets (Mansouri et al. 2018)
Peptide text beside a SMILES is read from it. * marks the point of attachment. NHtBu = CC(C)(C)N*

SMILES | logP
NS(=O)(=O)c1ccc(S(N)(=O)=O)cc1 | -0.96
O=NN1CCCCCC1 | 0.92
CCCCCSCS(=O)CC(CO)NC(=O)C=Cc1c(C)[nH]c(=O)[nH]c1=O (stereo unspecified) | 0.6
O=C(O)c1cc(O)c(O)c(O)c1 | 0.7
Cc1cccc(NC(N)=O)c1 | 1.29
CN(C)C(=O)OCc1cccc(Cl)c1 | 2.82
COC(=O)CNC(=O)c1ccccc1 | 0.82
CCOP(=S)(OCC)SCSCC | 3.56
COCCO | -0.77
O=C(O)COc1ccc(Cl)c(I)c1 | 3.1
COc1ccnc2c([N+](=O)[O-])cccc12 | 1.92
Fc1ccccc1CCl | 2.67
COC(=O)c1cccc(N=NN(C)C)c1 | 3.12
O=NN1CCC(Cl)C(Cl)C1 (stereo unspecified) | 1.04
CN(C)C(=O)Nc1cccc([N+](=O)[O-])c1 | 1.46
NS(=O)(=O)c1ccc(C(=O)O)cc1 | 0.5
O=C(O)COc1ccc(Br)cc1 | 2.45
CN(C)C(=O)OCc1ccc(Br)cc1 | 3.01
CCCC(NC(C)=O)C(N)=O (stereo unspecified) | -0.45
c1ccc2[nH]ccc2c1 | 2.14
CCNC(N)=O | -0.74
Nc1ccc(S(=O)(=O)Nc2cccnc2Cl)cc1 | 1.58
C=CC | 1.77
NC(=O)COc1ccccc1 | 0.76

SMILES | logP
CCNC | 0.15
CCCCCC(=O)O | 1.92
CC(=O)CC(=O)C(C)(C)C | 1.67
CC(=O)c1cccc(OCC(=O)O)c1 | 0.98
c1ccc2c(c1)cnc1ccccc12 | 3.48
CCOCC(O)Cn1cnc([N+](=O)[O-])n1 (stereo unspecified) | -0.07
C1CN2CCC1CC2 | 1.38
c1ccc2sccc2c1 | 3.12
COc1ccc2c(c1)OC(C)(C)C=C2 | 3.35
CCOC(=O)C(F)F | 0.87
CN(C)C(=O)Nc1ccccc1 | 0.98
CCOC(=O)c1ccccc1N | 2.57
O=Cc1cccc(C(F)(F)F)c1 | 2.47
CCCOC(=O)c1cc(O)c(O)c(O)c1 | 1.8
Cc1c(Cl)cccc1Nc1ccccc1C(=O)O | 5.17
COc1cccc(OC(=O)c2ccc(N)cc2O)c1 | 3.25
O=C(O)CCC(Nc1ccc(Br)cc1)C(=O)O (stereo unspecified) | 1.12
ClCCl | 1.25
CCOc1ccc([N+](=O)[O-])cc1 | 2.53
c1ccc(Oc2ccccn2)cc1 | 2.39
N#CN/C(N)=N/c1ccccc1 | 1.05
Cc1cc2ccccc2[nH]1 | 2.53
NC=O | -1.51
O=[N+]([O-])c1cccc(SSc2cccc([N+](=O)[O-])c2)c1 | 4.06

SMILES | logP
Cc1cc(C)c2c(c1)C(c1ccccc1)=NCC(=O)N2 | 2.94
CC(=O)N[C@@H](Cc1c[nH]c2ccccc12)C(=O)N[C@H](C(N)=O)C(C)C (Ac-Trp-Val-NH2) | 0.73
CC(=O)NC(=O)C1CCC1 | -0.4
N#Cc1c(Cl)cccc1Cl | 2.74
Oc1cc(Cl)cc(Cl)c1 | 3.62
CC(C)(O)C(=O)O | -0.36
Cc1cccc(C(=O)NN)c1 | 0.74
CCCc1nc2cccc(C)n2c(=O)c1CC | 2.37
NC(=O)CCN1CCc2cccc(Cl)c2CC1 | 1.64
O=Cc1ccccn1 | 0.44
O=C(NCc1ccc(O)cc1)c1ccccc1 | 1.87
O=C1CN=C(c2ccccc2C(F)(F)F)c2ccccc2N1 | 2.47
CN(C)C(=O)c1ccco1 | 0.41
CCCCOC | 1.66
O=C(O)c1ccc2c(c1)OCCOCCOCCOCCOCCO2 | -0.28
COc1cccc(OC(=O)N(C)C)c1 | 1.6
Cc1cnc2ccccc2n1 | 1.61
O=S(=O)(CF)Nc1ccc(Cl)cc1 | 2.25
CC12CCC(=O)C=C1CCC1C3CCC4(CCC(=O)O4)C3CCC12C (stereo unspecified) | 2.98
CN(C)C(=O)c1cccs1 | 0.75
OC(c1ccccc1)c1ccccn1 (stereo unspecified) | 1.52
CCOC(=O)NC1=C(N2CC2)C(=O)C(NC(=O)OCC)=C(N2CC2)C1=O | -0.02
CS(=O)(=O)Oc1ccccc1 | 1.25
Nc1ncnc2nn[nH]c12 | -0.96

SMILES | logP
SC1=NCCCN1 | -0.68
CCCCCOCc1ccccc1NC(=O)OCCN1CCCCC1 | 4.42
NC(=O)C=Cc1ccccc1 | 1.43
CC(C)C(=O)NC(N)=O | 0.04
CCCC1CCCc2ncc(C(=O)OC)c(=O)n21 (stereo unspecified) | 1.14
Clc1cc2oc3c(Cl)c(Cl)ccc3c2c(Cl)c1Cl | 6.26
CON(C)C(=O)Nc1ccc(Cl)c(Cl)c1 | 3.2
O=C(O)CNc1ccccc1 | 0.62
CN(C)N=Nc1ccc(C=CC(=O)O)cc1 | 2.66
CSc1cccc(OCC(=O)O)c1 | 1.9
CCOC(=O)C(=Cc1ccc(OC)cc1)C(C)=O | 2.46
O=C(O)c1ccc(O)cc1O | 1.63
CC(=O)S[C@@H]1CC2=CC(=O)CC[C@]2(C)[C@H]2CC[C@@]3(C)[C@@H](CC[C@@]34CCC(=O)O4)[C@H]12 | 2.78
Cc1ccc(O)c(O)c1 | 1.37
Cc1cccc(OCC(=O)O)c1 | 1.78
CCCC(NC(C)=O)C(=O)OC (stereo unspecified) | 0.33
CC(C)(C)c1ccccn1 | 2.4
CCOC(=O)C(=O)OCC | 0.56
Oc1ccc(Cl)c2cccnc12 | 2.88
Nc1c2ccccc2nc2ccccc12 | 2.74
CC(=O)NC1=CC(=O)c2ccccc2C1=O | 1.29
CCc1cccs1 | 2.87
Nc1ccc(C[C@H](N)C(=O)O)cc1 | -2.2
NC(=O)CF | -1.05

SMILES | logP
O=Nc1c(O)ccc2ccccc12 | 2.28
CC(=O)OCC(=O)[C@@]1(O)[C@H](OC(C)=O)C[C@H]2[C@@H]3CCC4=CC(=O)C=C[C@]4(C)[C@@]3(F)[C@@H](O)C[C@@]21C | 1.92
O=c1[nH]c(=O)n(C2CCCO2)cc1F (stereo unspecified) | -0.27
CCN(CC)c1ccccc1 | 3.31
CCCCSCS(=O)CC(C)NC(=O)C=Cc1c(C)[nH]c(=O)[nH]c1=O (stereo unspecified) | 0.82
OCCCCc1ccncc1 | 0.9
C[C@]12CCC(=O)C=C1C=C[C@@H]1[C@@H]2CC[C@@]2(C)[C@H]1CC[C@@]21CCC(=O)O1 | 2.68
CNC(=O)Oc1ccc(C(C)C)cc1 | 2.57
O=C(Cc1cccs1)N[C@@H]1C(=O)N2C(C(=O)[O-])=C(C[n+]3ccccc3)CS[C@H]12 | -1.62
NS(=O)(=O)c1cccc2cccnc12 | 0.42
O=C(O)CCCC(=O)O | -0.29
CN(C(N)=O)c1ccccc1 | 0.42
OCC1OC(Oc2ccc(Cl)cc2)C(O)C(O)C1O (stereo unspecified) | 0.26
NC(=O)c1cnccn1 | -0.6
NNC(=O)c1ccccc1O | 0.6
CCC(=O)OCC(=O)[C@@]1(OC(=O)CC)[C@@H](C)C[C@H]2[C@@H]3CCC4=CC(=O)C=C[C@]4(C)[C@@]3(F)[C@@H](O)C[C@@]21C | 4.07
CCc1cc(OC)c(CC(C)N)cc1OC (stereo unspecified) | 2.81
O=C(O)Cc1ccccc1Nc1ccc(Cl)c(Cl)c1 | 4.9
OC(c1ccc(Cl)cc1)(c1ccc(Cl)cc1)C1CC1 | 5.5
Cn1ccccc1=O | -0.23
CC(C)(C)N(CC(O)COc1ccccc1)CC(O)COc1ccccc1 (stereo unspecified) | 3.99
Nc1ccc([N+](=O)[O-])cc1N | 0.88
CNC(=O)Nc1ccc(OC)c(Cl)c1 | 1.76
NC(=O)CCc1ccccn1 | -0.27

SMILES | logP
C=C(C)C(=O)OCC(C)O (stereo unspecified) | 0.97
O=C1CC(c2ccc(C(F)(F)F)cc2)Cc2c1c(=O)c1cc(Cl)ccc1n2O (stereo unspecified) | 3.46
S=C=NCc1ccccc1 | 3.16
Cn1ccc(=O)n(C)c1=O | -0.54
Cc1nccnc1CC(C)C | 1.96
O=C(O)c1ccccc1F | 1.77
COC(=O)CCCCCC(=O)OCC(=O)C1(O)CCC2C3CCC4=CC(=O)CCC4(C)C3C(O)CC21C (stereo unspecified) | 3.7
NC(=O)c1ccc([N+](=O)[O-])cc1 | 0.82
CC(C)c1ccc(O)c(=O)cc1 | 1.89
COc1cccc(CNC(=O)C2(O)C(C)CC3C4CCC5=CC(=O)C=CC5(C)C4(F)C(O)CC32C)c1 (stereo unspecified) | 3.27
Cc1n[nH]c(C(=O)N2CCCCCC2)c1[N+](=O)[O-] | 1.15
OCCCCl | 0.5
CC(=S)N(c1ccccc1)c1ccccc1 | 2.83
O=C(O)c1ccccc1Oc1ccccc1 | 3.11
CC(=O)NC(C)C(=O)NCC(=O)NC(C)C(=O)NC(C)(C)C (stereo not drawn) (Ac-Ala-Gly-Ala-NHtBu; configuration not given here) | -0.6
Cc1noc(NS(=O)(=O)c2ccc(N)cc2)c1C | 1.01
CCCOC(=O)c1ccc(S(N)(=O)=O)cc1 | 1.75
Clc1ccc(Cl)c(-c2cc(Cl)ccc2Cl)c1 | 6.09
NC(=O)CCCCc1ccccn1 | 0.38
O=C(O)Cc1ccc(I)cc1 | 2.64
O=C(O)CSCc1ccccc1 | 2.1
O=NN1CCC(Br)C(Br)C1 (stereo unspecified) | 1.23
NCCc1cccnc1 | -0.11
NC(=O)CBr | -0.52

SMILES | logP
O=C(O)CCCCCC(=O)O | 0.61
CC(=O)C(F)(F)F | 0.2
OCCCc1ccccc1 | 1.88
CCC(CC)C(=O)NC(N)=O | 0.91
Clc1cc(Cl)c(-c2ccccc2)c(Cl)c1 | 5.47
OCCN1CCCCC1 | 0.96
O=C(O)c1ccc(O)c(O)c1O | 1.05
COc1ccc(N(CCCC(=O)O)C(=O)c2ccc(Cl)cc2)cc1 | 2.7
NC(CCCc1ccccc1)C(=O)O (stereo unspecified) | -0.36
CN(C)C1=CC(=O)C(N(C)C)=CC1=O | 1.03
c1ccc(NC2=NCCN2)cc1 | 1.01
Cc1cccc(C)c1 | 3.2
CN(Cc1ccccc1)c1ccccc1 | 4.22
CN(C)C(=O)C12CC3CC(CC(C3)C1)C2 | 2.55
c1cc2ccc3ccc4ccc5cccc6c(c1)c2c3c4c56 | 6.63
O=[N+]([O-])c1ccc2oncc2c1 | 1.46
CCCCOC(N)=O | 0.85
O=C(O)c1ccsc1 | 1.5
O=c1[nH]c(=O)c2[nH]cnc2[nH]1 | -0.73
CCC(=O)OC1(C(=O)CCl)C(C)CC2C3CCC4=CC(=O)C=CC4(C)C3(F)C(=O)CC21C (stereo unspecified) | 3.46
O=[N+]([O-])c1cc(Cl)c(O)c(Cl)c1Cl | 3.93
O=C(O)COc1ccccc1O | 0.85
